Patent US12059420B2 (BRISTOL-MYERS SQUIBB COMPANY, priority 2018, dated 2024)
Structures can show the parent of a compound that is named as a salt.

target: T1, human IDO1 (Homo sapiens, UniProt P14902); assay: IDO inhibition assay in HEK293 cells stably expressing human IDO1 (kynurenine production, Ehrlich reagent, absorbance 490 nm); assay type: cell-based; settings: 20 hours incubation with compound, 500 nM reference standard = 100% inhibition, read-out: IDO1 HEK Human IC50
T1 construct: expressed in transfected cells
T1 sequence (P14902 whole entry): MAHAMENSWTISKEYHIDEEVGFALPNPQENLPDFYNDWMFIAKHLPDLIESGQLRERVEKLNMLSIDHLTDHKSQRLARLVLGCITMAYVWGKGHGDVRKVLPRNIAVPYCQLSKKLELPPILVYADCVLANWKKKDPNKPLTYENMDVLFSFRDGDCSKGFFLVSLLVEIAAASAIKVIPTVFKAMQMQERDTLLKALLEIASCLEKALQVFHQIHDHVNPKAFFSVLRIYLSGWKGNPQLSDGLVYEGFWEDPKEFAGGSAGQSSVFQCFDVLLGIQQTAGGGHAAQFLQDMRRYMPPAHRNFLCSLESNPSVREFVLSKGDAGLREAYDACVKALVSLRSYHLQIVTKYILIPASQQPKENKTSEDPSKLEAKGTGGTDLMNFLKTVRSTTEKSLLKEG
Summary of the method: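 Kynurenine output of stably IDO1-transfected HEK293 cells was measured by absorbance at 490 nm after mixing supernatant with 0.2% Ehrlich reagent, following TCA stop (0.2% final, 50° C., 30 min). Cells were incubated 20 hours with compound. Inhibition was scaled between DMSO and 500 nM reference standard.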

Row | Compound | IC50
1 | Cc1ccc(CC(=O)Nc2cc(-c3ccccc3-c3nnn[nH]3)nc(N(Cc3ccc(F)cc3)CC(C)C)c2)cc1 [Example 90, N-(2-(2-(1H-tetrazol-5-yl)phenyl)-6-((4-fluorobenzyl)(isobutyl)amino)pyridin-4-yl)-2-(p-tolyl)acetamide, TFA] | 40.9 nM
2 | CCCN(Cc1ccccc1)c1cc(Nc2ccn(C)n2)cc(-c2ccccc2-c2nnn[nH]2)n1 [Example 61, 6-(2-(1H-tetrazol-5-yl)phenyl)-N2-benzyl-N4-(1-methyl-1H-pyrazol-3-yl)-N2-propylpyridine-2,4-diamine] | 446 nM
3 | CCN(Cc1ccccc1)c1cc(NC(=O)Nc2ccc(OC(F)F)cc2)cc(-c2ccccc2-c2nnn[nH]2)n1 [Example 280] | 554 nM
4 | CCC(CC(=O)O)c1cc(Nc2ccc(Cl)cc2)cc(N(Cc2ccccc2)CC(C)C)n1 (racemic) [Example 245, 3-(6-(benzyl(isobutyl)amino)-4-((4-chlorophenyl)amino)pyridin-2-yl)pentanoic acid] | 47.5 nM
5 | CCCN(Cc1ccccc1)c1cc(NC(=O)Cc2ccc(C)cc2)cc(-c2ccccc2S(=O)(=O)NC(C)=O)n1 [Example 34, N-(2-(2-(N-acetylsulfamoyl)phenyl)-6-(benzyl(propyl)amino)pyridin-4-yl)-2-(p-tolyl) acetamide] | 237 nM
6 | Cc1nc2ccc(Nc3cc(-c4ccccc4-c4nnn[nH]4)nc(N(Cc4ccccc4)CC(C)C)c3)cc2s1 [Example 161, 6-(2-(1H-tetrazol-5-yl)phenyl)-N2-benzyl-N2-isobutyl-N4-(2-methylbenzo[d]thiazol-6-yl)pyridine-2,4-diamine] | 2.1 nM
7 | CCCN(Cc1ccccc1)c1cc(NC(=O)Nc2ccc(C)cc2)cc(-c2ccccc2C(=O)NS(=O)(=O)N2CCN(C)CC2)n1 [Example 18, 2-(6-(benzyl(propyl)amino)-4-(3-(p-tolyl)ureido)pyridin-2-yl)-N-((4-methylpiperazin-1-yl)sulfonyl)benzamide] | 2430 nM
8 | CCCN(Cc1ccccc1)c1cc(NC(=O)Cc2ccc(C)nc2)cc(-c2ccccc2-c2nnn[nH]2)n1 [Example 293] | 1370 nM
9 | Cc1ccc(CC(=O)Nc2cc(-c3ccccc3-c3nnn[nH]3)nc(N3CCc4ccccc4C3)n2)cc1 [Example 94, N-(6-(2-(1H-tetrazol-5-yl)phenyl)-2-(3,4-dihydroisoquinolin-2(1H)-yl)pyrimidin-4-yl)-2-(p-tolyl)acetamide] | 260 nM
10 | Cc1ccc(NC(=O)Nc2cc(-c3ccccc3-c3nnn[nH]3)nc(N(CC(C)C)C3CCCCC3)n2)cc1 [Example 2, 1-(6-(2-(1H-tetrazol-5-yl)phenyl)-2-(cyclohexyl(isobutyl)amino)pyrimidin-4-yl)-3-(p-tolyl)urea] | 1040 nM
11 | CC(C)CN(Cc1ccccc1)c1cc(Nc2ccc(C(N)=O)cc2)cc(-c2ccccc2-c2nnn[nH]2)n1 [Example 144, 4-((2-(2-(1H-tetrazol-5-yl)phenyl)-6-(benzyl(isobutyl)amino)pyridin-4-yl)amino)benzamide] | 665 nM
12 | CC(C)CN(Cc1ccccc1)c1cc(Nc2ccnc3ccnn23)cc(-c2ccccc2-c2nnn[nH]2)n1 [Example 155, 6-(2-(1H-tetrazol-5-yl)phenyl)-N2-benzyl-N2-isobutyl-N4-(pyrazolo[1,5-a]pyrimidin-7-yl)pyridine-2,4-diamine] | 131 nM
13 | CC(C)CN(Cc1ccc(F)cc1)c1cc(Nc2ccc(F)cc2)cc(-c2ccccc2-c2nnn[nH]2)n1 [Example 39, 6-(2-(1H-tetrazol-5-yl)phenyl)-N2-(4-fluorobenzyl)-N4-(4-fluorophenyl)-N2-isobutylpyridine-2,4-diamine] | 2.4 nM
14 | CCCN(Cc1ccccc1)c1cc(NC(=O)Cc2cc(OC)ccc2OC)cc(-c2ccccc2-c2nn[nH]n2)n1 [Example 204, N-(2-(2-(2H-tetrazol-5-yl)phenyl)-6-(benzyl(propyl)amino)pyridin-4-yl)-2-(2,5-dimethoxyphenyl)acetamide] | 159 nM
15 | Cc1ccc(NC(=O)Nc2cc(-c3ccccc3-c3nnn[nH]3)nc(N(Cc3ccc(F)cc3)CC(C)C)c2)cc1 [Example 78, 1-(2-(2-(1H-tetrazol-5-yl)phenyl)-6-((4-fluorobenzyl)(isobutyl)amino)pyridin-4-yl)-3-(p-tolyl)urea, TFA] | 8.2 nM
16 | CC(C)CN(c1cc(NC(=O)Nc2ccc(F)cc2F)cc(-c2ccccc2-c2nnn[nH]2)n1)C1CCCCC1 [Example 287, 1-(2-(2-(1H-Tetrazol-5-yl)phenyl)-6-(cyclohexyl(isobutyl)amino)pyridin-4-yl)-3-(2,4-difluorophenyl)urea] | 5990 nM
17 | CCCN(Cc1ccccc1)c1cc(NC(=O)Nc2cc(C)on2)cc(-c2ccccc2-c2nnn[nH]2)n1 [Example 297] | 270 nM

Row | Compound | IC50
18 | CCCN(Cc1ccccc1)c1cc(NC(=O)Nc2ccccc2F)cc(-c2ccccc2-c2nnn[nH]2)n1 [Example 262, 1-(2-(2-(1H-tetrazol-5-yl)phenyl)-6-(benzyl(propyl)amino)pyridin-4-yl)-3-(2-fluorophenyl)urea] | 105 nM
19 | Cc1ccc(CC(=O)Nc2cc(-c3ccccc3-c3nnn[nH]3)nc(N(Cc3ccccc3)CC(C)C)c2)cc1 [Example 87, N-(2-(2-(1H-tetrazol-5-yl)phenyl)-6-(benzyl(isobutyl)amino)pyridin-4-yl)-2-(p-tolyl)acetamide, TFA] | 40.7 nM
20 | CCCN(Cc1ccccc1)c1cc(NC(=O)Nc2ccc(C)cc2)cc(-c2ccccc2-c2nnn[nH]2)n1 [Example 260, 1-(2-(2-(1H-tetrazol-5-yl)phenyl)-6-(benzyl(propyl)amino)pyridin-4-yl)-3-(p-tolyl)urea] | 9.9 nM
21 | Cc1cc(F)ccc1Nc1cc(-c2ccccc2-c2nnn[nH]2)nc(N(Cc2ccccc2)CC(C)C)c1 [Example 175, 6-(2-(1H-tetrazol-5-yl)phenyl)-N2-benzyl-N4-(4-fluoro-2-methylphenyl)-N2-isobutylpyridine-2,4-diamine] | 54.9 nM
22 | CCCN(Cc1ccc(F)cc1)c1cc(NC(=O)Nc2ccc(Cl)cc2F)cc(-c2ccccc2-c2noc(=O)[nH]2)n1 [Example 13, 1-(4-chloro-2-fluorophenyl)-3-(2-((4-fluorobenzyl)(propyl)amino)-6-(2-(5-oxo-4,5-dihydro-1,2,4-oxadiazol-3-yl)phenyl)pyridin-4-yl)urea] | 13.2 nM
23 | Cc1ccc(CC(=O)Nc2cc(-c3ccccc3-c3nnn[nH]3)nc(N3CC(C)OC(C)C3)c2)cc1 (stereo not shown) [Example 125, N-(2-(2-(1H-tetrazol-5-yl)phenyl)-6-(2,6-dimethylmorpholino)pyridin-4-yl)-2-(p-tolyl)acetamide] | 1110 nM
24 | O=C(Nc1ccc(OC(F)(F)F)cc1)Nc1cc(-c2ccccc2-c2nnn[nH]2)nc(N(Cc2ccccc2)Cc2ccccc2)c1 [Example 273, 1-(2-(2-(1H-Tetrazol-5-yl)phenyl)-6-(dibenzylamino)pyridin-4-yl)-3-(4-(trifluoromethoxy)-phenyl)urea] | 609 nM
25 | Cc1ccc(C(=O)Nc2cc(-c3ccccc3-c3nnn[nH]3)nc(N(Cc3ccccc3)CC(C)C)n2)c(F)c1 [Example 9, N-(6-(2-(1H-tetrazol-5-yl)phenyl)-2-(benzyl(isobutyl)amino)pyrimidin-4-yl)-2-fluoro-4-methylbenzamide] | 74 nM
26 | CCCN(Cc1ccccc1)c1cc(NC(=O)Cc2ccc(C(C)C)cc2)cc(-c2ccccc2-c2nn[nH]n2)n1 [Example 220, N-(2-(2-(2H-tetrazol-5-yl)phenyl)-6-(benzyl(propyl)amino)pyridin-4-yl)-2-(4-isopropylphenyl)acetamide] | 52.6 nM
27 | COc1ccc(Nc2cc(-c3ccccc3-c3nnn[nH]3)nc(N(Cc3ccccc3)CC(C)C)c2)c(F)c1 [Example 186, 6-(2-(1H-tetrazol-5-yl)phenyl)-N2-benzyl-N4-(2-fluoro-4-methoxyphenyl)-N2-isobutylpyridine-2,4-diamine] | 3.5 nM
28 | CC(C)CN(Cc1ccccc1)c1cc(Nc2cccc(CO)n2)cc(-c2ccccc2-c2nnn[nH]2)n1 [Example 137, (6-((2-(2-(1H-tetrazol-5-yl)phenyl)-6-(benzyl(isobutyl)amino)pyridin-4-yl)amino)pyridin-2-yl)methanol] | 48.7 nM
29 | CC(C)CN(Cc1ccccc1)c1cc(NC(=O)Nc2ccc(Cl)cc2Cl)cc(-c2ccccc2-c2nnn[nH]2)n1 [Example 238, 1-(2-(2-(1H-tetrazol-5-yl)phenyl)-6-(benzyl(isobutyl)amino)pyridin-4-yl)-3-(2,4-dichlorophenyl)urea] | 26.3 nM
30 | Cc1ccc(Nc2cc(-c3ccccc3-c3nnn[nH]3)nc(N(Cc3ccccc3)CC(C)C)c2)cc1 [Example 148, 6-(2-(1H-tetrazol-5-yl)phenyl)-N2-benzyl-N2-isobutyl-N4-(p-tolyl)pyridine-2,4-diamine] | 4.8 nM
31 | CCCN(Cc1ccccc1)c1cc(NC(=O)Cc2cn(C)c3ccccc23)cc(-c2ccccc2-c2nn[nH]n2)n1 [Example 221, N-(2-(2-(2H-tetrazol-5-yl)phenyl)-6-(benzyl(propyl)amino)pyridin-4-yl)-2-(1-methyl-1H-indol-3-yl)acetamide] | 249 nM
32 | CC(C)CN(Cc1ccccc1)c1cc(Nc2ccc3ccccc3n2)cc(-c2ccccc2-c2nnn[nH]2)n1 [Example 154, 6-(2-(1H-tetrazol-5-yl)phenyl)-N2-benzyl-N2-isobutyl-N4-(quinolin-2-yl)pyridine-2,4-diamine] | 54 nM
33 | CCN(CCC(F)(F)F)c1nc(NC(=O)Cc2ccc(C)cc2)cc(-c2ccccc2-c2nnn[nH]2)n1 [Example 100, N-(6-(2-(1H-tetrazol-5-yl)phenyl)-2-(ethyl(3,3,3-trifluoropropyl)amino)pyrimidin-4-yl)-2-(p-tolyl)acetamide] | 127 nM
34 | CCCN(Cc1ccccc1)c1cc(NC(=O)Cc2cccc3ccccc23)cc(-c2ccccc2-c2nn[nH]n2)n1 [Example 200, N-(2-(2-(2H-tetrazol-5-yl)phenyl)-6-(benzyl(propyl)amino)pyridin-4-yl)-2-(naphthalen-1-yl)acetamide] | 82.4 nM
